Values after ≈ are worked out from the molar mass of the structure shown. Values joined by “and” are separate entries in the source; they are usually repeats but may differ in a detail not shown here. Equal values may be shown once.
Experiments:
[1] = molecular target: T1, Acetylcholinesterase (AChE, from electric eels) (Electrophorus electricus, UniProt O42275); assay: AChE inhibition assay (modified Ellman's method); assay type: biochemical; settings: AChE Inhibitory Activity (IC50), 0.2 U/mL, 37 °C
T1 construct: purchased Sigma-Aldrich
T1 sequence (O42275 24-633): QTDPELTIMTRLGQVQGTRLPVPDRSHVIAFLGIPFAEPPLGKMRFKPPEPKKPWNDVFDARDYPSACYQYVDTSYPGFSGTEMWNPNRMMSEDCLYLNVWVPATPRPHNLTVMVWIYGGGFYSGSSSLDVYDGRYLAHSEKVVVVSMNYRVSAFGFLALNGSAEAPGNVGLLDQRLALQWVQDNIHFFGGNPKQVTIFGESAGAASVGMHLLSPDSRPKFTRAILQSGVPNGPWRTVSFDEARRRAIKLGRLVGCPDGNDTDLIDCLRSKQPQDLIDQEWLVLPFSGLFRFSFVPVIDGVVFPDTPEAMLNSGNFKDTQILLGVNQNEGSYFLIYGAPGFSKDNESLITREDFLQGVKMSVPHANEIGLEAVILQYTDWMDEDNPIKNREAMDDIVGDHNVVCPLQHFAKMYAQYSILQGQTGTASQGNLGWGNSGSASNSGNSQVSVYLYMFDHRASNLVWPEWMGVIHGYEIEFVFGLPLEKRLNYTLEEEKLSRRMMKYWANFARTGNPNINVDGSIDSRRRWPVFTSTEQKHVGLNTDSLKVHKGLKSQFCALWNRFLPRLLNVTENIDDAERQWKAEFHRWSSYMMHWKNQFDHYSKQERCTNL
Experimental: Acetylcholinesterase (AChE, from electric eels), acetythiocholine iodide (ATCh), 5,5-dithiobis-(2-nitrobenzoic acid) (DTNB), and bovine serum albumin (BSA, A1933) were purchased from Sigma-Aldrich. 100 mM PBS (pH = 7.4) was prepared with K2HPO4 and KH2PO4. In vitro AChE inhibitory activity was measured in 96-well plates using modified Ellman’s methods. […] Each well contained 1 μL of prepared sample, 49 μL of PBS, 10 μL of enzyme with a final concentration of 0.2 U/mL in BSA ([…] in PBS), and 20 μL of DTNB (5 mM in PBS). Then, the plates were preincubated at 37 °C for 10 min. Afterwards, 20 μL of ATCh (10 mM in PBS) was added into the well. After incubation at 37 °C for 20 min, the 96-well plates were read at 405 nm on the microplate reader, and the inhibition ratios to AChE were calculated using the following equation, where Asample blank stands for the absorbance of a well without enzyme, Asample stands for the absorbance of the treatment, Acontorl stands for the absorbance of the well without the sample, and Ablank stands for the absorbance of the well without the sample and enzyme. Donepezil was taken as a positive control. Inhibition of AChE (%)=[(Acontrol−Ablank)−(Asample−Asample blank)]/(Acontrol−Ablank)×100%
The inhibition rates and concentration logarithm (lnC) values were imported into the Origin 8.0 software (OriginLab Co., Ltd., Northampton, MA, USA). The cubic polynomial regression equation was used to calculate ln(IC50). Then, IC50 was calculated using Microsoft Excel.

[2] = Brine shrimp larva lethality test; assay type: in vivo, Artemia salina; settings: Artemia salina (brine shrimp) larvae, live brine shrimp larvae in 96-well plate, other: immersion in seawater containing the compound, 24 h at 28 °C, read-out: Larvicidal Activity (LC50)
Experimental: (§1) Compounds 1‒10 were evaluated for larvicidality using the brine shrimp (Artemia salina) larva lethality test. 0.15 g of frozen eggs of brine shrimp larva (purchased from Aijia Aquarium Co., Zhanjiang, China) were activated at room temperature for 12 h. After activation, eggs were added to 1 L of artificial seawater (3% sea salt), ventilated with air for 420 mL/min, then kept at a brightness at 1000 lux and incubated at 28 °C for 24 h. After incubation, the larvae were induced to the top of the separating funnel by phototaxis, and the dead ones on bottom were discharged. Then, in each well of the 96-well plate, 1 μL of test compounds (in DMSO) with different concentrations and 99 μL of seawater containing 20‒30 live larvae were added. After incubation under light at 28 °C for 24 h, recorded the numbers of dead larvae. Finally, 10 μL of the Lucus reagent were added into each well and the total number of brine shrimp larva in the well were counted. DMSO and Hg(NO3)2 were used as blank control and positive control, respectively. Lethality rate (%)=(lethality of treatment−lethality of blank control)/survival rate of blank control×100%
(§2) The brine shrimp larva LC50 value is the concentration required to kill 50% of the larvae. Likewise, the LC50 was calculated using Origin 8.0 plotting and cubic polynomial regression.

[3] = DPPH free radical scavenging assay; settings: 0.16 mM DPPH, 30 min in darkness at room temperature
Experimental: The free radical scavenging potentials of compounds 1‒10 were evaluated in 96-well plates using the DPPH free radical scavenging assay described by Sharma and Bhat. A total of 100 μL of the reaction mixture was composed of 50 μL of 0.16 mM DPPH (Sigma-Aldrich, St. Louis, MO, USA) in methanol and 50 μL of the test compound (in DMSO) with different concentrations (Asample). The reaction mixture was incubated for 30 min in darkness at room temperature. Meanwhile, 50 μL of 0.16 mM DPPH with 50 μL of DMSO was used as control (Acontrol), 50 μL of methanol and 50 μL of different concentrations of the test compound in DMSO were used as the sample blanks (Asample blank), 50 μL methanol with 50 μL DMSO was used as the blank (Ablank), while vitamin C was taken as a positive control. The absorbance was measured at 517 nm on the microplate reader. Scavenging capacity (%)=[(Acontrol−Ablank)−(Asample−Asample blank)]/(Acontrol−Ablank)×100%
The EC50 value is the concentration required to scavenge 50% of DPPH radicals. Likewise, the EC50 was calculated using Origin 8.0 plotting and cubic polynomial regression.

[4] = system: Vibrio parahemolyticus (ZouB); assay: microbe, parasite or virus in culture; assay type: cell-based; settings: Vibrio
Experimental: (§3) Preliminary antimicrobial tests for compounds 1‒10 were carried out against pathogenetic strains, including Pseudomonas aeruginosa (ATCC 9027), methicillin-resistant Staphylococcus aureus (A7983, clinical isolate donated by Zhijun Yu in Dalian Friendship Hospital, Dalian, China), Vibrio parahemolyticus (ZouB, aquatic pathogen donated by Chongqing Wen in College of Fishery, Guangdong Ocean University, Zhanjiang, China), and Candida albicans (ATCC 10231) using the disc diffusion method. Muller Hinton agar (MHA) and Sabouraud agar (SA) were used for antibacterial and antifungal tests, respectively. For each sample, 10 μg was added onto paper disc (diameter of 6 mm) for tests. The minimum inhibition concentrations (MICs) of the compounds were tested using microdilution methods. Ampicillin and ketoconazole were taken as positive controls for antibacterial and antifungal tests, respectively. Solvents (MeOH and DMSO) were used as blank controls.

[5] = system: methicillin-resistant Staphylococcus aureus (A7983, clinical isolate); assay: Antimicrobial paper disc diffusion method; assay type: cell-based; settings: Staphylococcus aureus, MRSA
Experimental: as §3

[6] = system: Vibrio parahemolyticus (ZouB); assay: Antimicrobial paper disc diffusion method; assay type: cell-based; settings: Vibrio; V. parahemolyticus; incomplete inhibition; 10 μg per disc; paper disc diameter 6.0 mm; mean ± SD of three replicates
Experimental: as §3

[7] = system: Candida albicans (ATCC 10231); assay: Antimicrobial paper disc diffusion method; assay type: cell-based; settings: Candida albicans, ATCC10231; C. albicans; 10 μg per disc; paper disc diameter 6.0 mm; mean ± SD of three replicates
Experimental: as §3

[8] = system: Pseudomonas aeruginosa (ATCC 9027); assay: Antimicrobial paper disc diffusion method; assay type: cell-based; settings: Pseudomonas aeruginosa, ATCC9027; P. aeruginosa; 10 μg per disc; paper disc diameter 6.0 mm; mean ± SD of three replicates
Experimental: as §3

[9] = system: methicillin-resistant Staphylococcus aureus (A7983, clinical isolate); assay: Antimicrobial microdilution method (MIC); assay type: cell-based; settings: MRSA
Experimental: as §3

[10] = system: Candida albicans (ATCC 10231); assay: Antimicrobial microdilution method (MIC); assay type: cell-based; settings: ATCC10231, C. albicans
Experimental: as §3

[11] = system: Pseudomonas aeruginosa (ATCC 9027); assay: Antimicrobial microdilution method (MIC); assay type: cell-based; settings: ATCC9027, P. aeruginosa
Experimental: as §3

[12] = system: brine shrimp (Artemia salina) larva; assay: Brine shrimp larva lethality test; assay type: in vivo; settings: brine shrimp larvae, 24 h at 28 °C; read-out: Larvicidal Activity (LC50)
Experimental: as §1, §2

| Compound | IC50 [1] | LC50 at 24 h [2] | EC50 [3] | MIC [4] | zone of inhibition at 10 µg/disc [5] | zone of inhibition at 10 µg/disc [6] | zone of inhibition at 10 µg/disc [7] | zone of inhibition at 10 µg/disc [8] | MIC [9] | MIC [10] | MIC [11] | LC50 [12] |
| --- | --- | --- | --- | --- | --- | --- | --- | --- | --- | --- | --- | --- |
| CC=C(C)c1c(Cl)c(O)c(C)c2c1Oc1cc(O)c(Cl)c(C)c1C(=O)O2 [Compound 7, aspergillusidone C] | > 102 µM | 72 µM | > 102 µM | > 102 µM | 13.7 ± 2.3 mm | 9.7 ± 0.6 mm | 7.9 ± 0.2 mm | 10 mm | > 102 µM | > 102 µM | 25.6 µM (≈ 10.1 µg/mL) |  |
| CC=C(C)c1cc(O)c(C)c2c1Oc1cc(O)c(Cl)c(C)c1C(=O)O2 [Compound 8, 2-chlorounguinol] | > 102 µM | 75.9 µM | > 102 µM | > 102 µM | 17 mm | 8.3 ± 0.6 mm | 10 mm | 11.1 ± 0.2 mm | 25.6 µM (≈ 9.24 µg/mL) | > 102 µM | 51.2 µM (≈ 18.5 µg/mL) |  |
| CC=C(C)c1c2c(c(C)c(O)c1C(=O)O)OC(=O)c1c(C)cc(O)cc1O2 [Compound 9, aspergillusidone A] | 56.7 µM and 56.8 µM | 51.2 µM | > 102 µM | > 102 µM | 17.7 ± 0.6 mm | 8.3 ± 0.6 mm | 15.5 ± 2.2 mm | 16 mm | 12.8 µM (≈ 4.74 µg/mL) | 6.4 µM (≈ 2.37 µg/mL) | 102 µM (≈ 37.9 µg/mL) |  |
| O=[N+]([O-])[O-].O=[N+]([O-])[O-].[Hg+2] [Hg(NO3)2, reference compound] |  |  |  |  |  |  |  |  |  |  |  | 77 µM |
